The values that follow come from patent US7417061B2, “Oxadiazole compounds and compositions for delivering active agents” (MHR Institutional Partners IIA LP, priority 1999, dated 2008).

The data set can be described thus: Oral delivery of rhGH with delivery agent compound in rats; serum rhGH by immunoassay. The conditions noted are these: male Sprague-Dawley rats, compound 200 mg/kg, rhGH 3 mg/kg, 1 ml/kg, pooled samples (except compound 1). In kind it is in vivo, rat. The protocol:
Oral gavage (PO) and/or intracolonic (IC) dosing solutions of delivery agent compound and rhGH in phosphate buffer were prepared. A solution of the compound was made either with the sodium salt of the compound or by converting the free acid to its sodium salt. Typically, a solution of the compound was prepared in phosphate buffer and stirred, adding one equivalent of sodium hydroxide (1.0 N) when making the sodium salt. The final dosing solutions were prepared by mixing the compound solution with an rhGH stock solution (15 mg rhGH/ml) and diluting to the desired volume (usually 3.0 ml). The compounds and rhGH dose amounts are listed below in Table 3.
The typical dosing and sampling protocols were as follows. Male Sprague-Dawley rats weighing between 200-250 g were fasted for 24 hours and administered ketamine (44 mg/kg) and chlorpromazine (1.5 mg/kg) 15 minutes prior to dosing. A dosing group of five rats was administered one of the dosing solutions. For oral gavage (PO), an 11 cm Rusch 8 French catheter was adapted to a 1 ml syringe with a pipette tip. The syringe was filled with dosing solution by drawing the solution through the catheter, which was then wiped dry. The catheter was placed down the esophagus leaving 1 cm of tubing past the rat's incisors. Solution was administered by pressing the syringe plunger. For intracolonic (IC) dosing, a 7.5 cm Rusch catheter tube (French 8 or 6) was adapted to a syringe with an Eppendorf pipette tip. The syringe was filled with the dosing solution by drawing the solution through the catheter tube. The catheter tube was wiped dry. K-Y jelly was applied to the tip, avoiding contact with the eye of the tube, and the tube was inserted into the colon through the anus until the tube was no longer visible. The solution was injected by pressing the syringe plunger, and the tube was removed.
Blood samples were collected serially from the tail artery, typically at 0, 15, 30, 45, 60 and 90 minutes after oral administration and 0, 10, 20, 30, 60 and 90 minutes after IC administration. The five samples from each time period were pooled (except for where compound 1 was dosed). Serum rHGH concentrations were quantified by an rHGH immunoassay test kit (Kit # K1F4015 from Genzyme Corporation Inc., Cambridge, Mass.). Previous studies indicated baseline values of about zero.
The maximum concentration for each group and the area under the curve (AUC), when available, are reported below in Table 3.
On to `COc1ccc(-c2nnc(CCCCC(=O)O)o2)c(O)c1` [Compound 9], for which the “Mean Peak Serum [rhGH]” value was determined as 14.25 ng/mL.
Consider `O=C(O)CCCCCCc1nnc(-c2cc(Cl)ccc2O)o1` [Compound 5], for which the “Mean Peak Serum [rhGH]” value was determined as 14.64 ng/mL.
`Cc1nnc(CCCCCCC(=O)O)o1` [Compound 12]: the “Mean Peak Serum [rhGH]” value worked out at 0 ng/mL.
With `O=C(O)CCCCCCc1nnc(-c2cc(Cl)cc(Cl)c2O)o1` [Compound 6], the “Mean Peak Serum [rhGH]” value was determined as 0 ng/mL.
